We go through 22 compounds from patent publication EP2970215B1, “PYRROLIDINE DERIVATIVES, PHARMACEUTICAL COMPOSITIONS CONTAINING THEM, AND THEIR USE IN THERAPY” (AbbVie Deutschland GmbH & Co. KG, priority 2013, dated 2014).

The target in one assay is T1, human GlyT1c transporter (Homo sapiens, UniProt P48067).
T1 construct: expressed in transfected cells; host or cells: CHO cells (recombinant; line hGlyT1c_5_CHO is named for the uptake assay)
T1 sequence (P48067 1-706): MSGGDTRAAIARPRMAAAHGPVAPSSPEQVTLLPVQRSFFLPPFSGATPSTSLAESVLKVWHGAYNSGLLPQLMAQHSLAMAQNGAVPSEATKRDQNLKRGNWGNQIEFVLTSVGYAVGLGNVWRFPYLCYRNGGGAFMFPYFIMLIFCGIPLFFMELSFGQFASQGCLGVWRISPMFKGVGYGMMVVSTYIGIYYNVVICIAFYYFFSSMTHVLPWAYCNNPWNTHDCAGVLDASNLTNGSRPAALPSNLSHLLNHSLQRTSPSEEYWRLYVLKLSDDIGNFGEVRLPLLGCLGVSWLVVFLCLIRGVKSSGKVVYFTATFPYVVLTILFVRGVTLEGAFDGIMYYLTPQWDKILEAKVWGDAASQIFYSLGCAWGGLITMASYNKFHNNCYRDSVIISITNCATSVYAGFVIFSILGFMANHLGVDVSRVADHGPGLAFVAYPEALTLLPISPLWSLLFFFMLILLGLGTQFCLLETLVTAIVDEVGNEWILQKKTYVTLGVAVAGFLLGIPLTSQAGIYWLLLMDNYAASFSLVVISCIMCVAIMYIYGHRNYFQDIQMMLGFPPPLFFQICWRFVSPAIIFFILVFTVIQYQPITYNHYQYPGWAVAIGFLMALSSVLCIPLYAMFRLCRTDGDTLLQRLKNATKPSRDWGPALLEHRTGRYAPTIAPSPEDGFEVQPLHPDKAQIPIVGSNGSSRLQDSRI
The assay is described as follows: Radioligand binding assay using recombinant CHO cell membranes expressing human GlyT1. To be noted: radioligand binding to human GlyT1c transporter-expressing membranes. The text has this:
2. Radioligand binding assays using recombinant CHO cell membranes expressing human GlyT1: […]
For the compound `Cn1cnc(S(=O)(=O)N2C[C@@H](Nc3cccc(C(F)(F)F)c3)[C@H](c3ncccc3F)C2)c1` (relative stereo) [Example 798, Trans-4-(3-fluoropyridin-2-yl)-1-[(1-methyl-1H-imidazol-4-yl)sulfonyl]-N-[3-(trifluoromethyl)phenyl]pyrrolidin-3-amine], the Ki is not above 0.1 µM. Consider `Cn1cnc(S(=O)(=O)N2C[C@H](Nc3ccc(C(F)(F)F)c(C(F)(F)F)c3)[C@@H](c3ccccc3)C2)c1` [Example 656, (3R,4S)-N-[3,4-bis(trifluoromethyl)phenyl]-1-[(1-methyl-1H-imidazol-4-yl)sulfonyl]-4-phenylpyrrolidin-3-amine], for which the Ki is not above 1 µM. The same measure, in the same setting: in the case of `CCCC1CC1CN[C@H]1CN(S(=O)(=O)c2cn(C)cn2)C[C@@H]1c1ccccc1` (stereo partly drawn) [Example 649, (3R,4S)-1-[(1-methyl-1H-imidazol-4-yl)sulfonyl]-4-phenyl-N-[(2-propylcyclopropyl)methyl]pyrrolidin-3-amine] it was not above 0.1 µM; in that of `Cn1cnc(S(=O)(=O)N2C[C@@H]([C@@H]3CCCOC3)[C@H](Nc3ccc(Cl)c(OC(F)(F)F)c3)C2)c1` (relative stereo) [Example 793, Trans-N-[4-chloro-3-(trifluoromethoxy)phenyl]-1-[(1-methyl-1H-imidazol-4-yl)sulfonyl]-4-[(3S)-tetrahydro-2H-pyran-3-yl]pyrrolidin-3-amine], not above 10 µM. The same measure, in the same setting: for `Cc1cccc(-c2cc(N[C@H]3CN(S(=O)(=O)c4cn(C)cn4)C[C@@H]3c3ccc(F)cc3)ncn2)c1` [Example 724, N-{(3R,4S)-4-(4-fluorophenyl)-1-[(1-methyl-1H-imidazol-4-yl)sulfonyl]pyrrolidin-3-yl}-6-(3-methylphenyl)pyrimidin-4-amine] the value was not above 0.1 µM.

For `Cn1cnc(S(=O)(=O)N2C[C@H](Nc3ncc(F)cn3)[C@@H](c3ccccc3)C2)c1` [Example 424, 5-fluoro-N-{(3R,4S)-1-[(1-methyl-1H-imidazol-4-yl)sulfonyl]-4-phenylpyrrolidin-3-yl}pyrimidin-2-amine], the Ki was not above 1 µM. `CC1=C(CCN[C@H]2CN(S(=O)(=O)c3cn(C)cn3)C[C@@H]2c2ccccc2)C(C)(C)CCC1` [Example 458, (3R,4S)-1-[(1-methyl-1H-imidazol-4-yl)sulfonyl]-4-phenyl-N-[2-(2,6,6-trimethylcyclohex-1-en-1-yl)ethyl]pyrrolidin-3-amine]: the Ki was not above 10 µM. With `Cn1cnc(S(=O)(=O)N2C[C@H](NCc3scnc3Cl)[C@@H](c3ccccc3)C2)c1` [Example 565, (3R,4S)-N-[(4-chloro-1,3-thiazol-5-yl)methyl]-1-[(1-methyl-1H-imidazol-4-yl)sulfonyl]-4-phenylpyrrolidin-3-amine], the Ki is not above 10 µM. Consider `COc1ccc(S(=O)(=O)N2C[C@@H](NC(=O)c3cc(Cl)cc(Cl)c3)[C@H](c3ccccc3)C2)cc1` (relative stereo) [Example 135], for which the Ki was more than 10 µM.

Consider `Cn1cnc(S(=O)(=O)N2C[C@H](Nc3cc(Cl)ncn3)[C@@H](c3ccccc3)C2)c1` [Example 606, 6-chloro-N-{(3R,4S)-1-[(1-methyl-1H-imidazol-4-yl)sulfonyl]-4-phenylpyrrolidin-3-yl}pyrimidin-4-amine], for which the inhibition constant Ki was not above 0.1 µM. On the same count and under the same terms, for `Cn1cnc(S(=O)(=O)N2C[C@@H](Nc3cccc(C(C)(C)C)c3)[C@H](c3ccccc3)C2)c1` (relative stereo) [Example 221, trans-N-(3-tert-butylphenyl)-1-[(1-methyl-1H-imidazol-4-yl)sulfonyl] -4-phenylpyrrolidin-3-amine] the value was not above 1 µM. On the same count and under the same terms, for `Cn1cnc(S(=O)(=O)N2C[C@@H](NC(=O)c3ccccc3F)[C@H](c3ccccc3)C2)c1` (relative stereo) [Example 17, 2-fluoro-N-{trans-1-[(1-methyl-1H-imidazol-4-yl)sulfonyl]-4-phenylpyrrolidin-3-yl}benzamide] the value was not above 10 µM; for `Cn1cnc(S(=O)(=O)N2C[C@@H](NCc3ccc(C(F)(F)F)cc3Cl)[C@H](c3ccccc3)C2)c1` [Example 395, (3S,4R)-N-[2-chloro-4-(trifluoromethyl)benzyl]-1-[(1-methyl-1H-imidazol-4-yl)sulfonyl]-4-phenylpyrrolidin-3-amine], not above 1 µM. On the same count and under the same terms, for `Cn1cnc(S(=O)(=O)N2C[C@@H](Nc3ccc(F)c(F)c3)[C@H](c3ccccc3)C2)c1` (relative stereo) [Example 216, trans-N-(3,4-difluorophenyl)-1-[(1-methyl-1H-imidazol-4-yl)sulfonyl]-4-phenylpyrrolidin-3-amine] the value was not above 1 µM; for `CC(=O)Nc1ncc(S(=O)(=O)N2CC(Nc3ccc(F)c(F)c3)C(c3ccccc3)C2)s1` (stereo not shown) [Example 499, N-[5-({3-[(3,4-difluorophenyl)amino]-4-phenylpyrrolidin-1-yl}sulfonyl)-1,3-thiazol-2-yl]acetamide], not below 10 µM; for `Cn1cc(S(=O)(=O)N2C[C@@H](NC(=O)c3cccc(C(F)(F)F)c3Cl)[C@H](c3ccccc3)C2)cn1` (relative stereo) [Example 43, 2-chloro-N-{trans-1-[(1-methyl-1H-pyrazol-4-yl)sulfonyl]-4-phenylpyrrolidin-3-yl}-3-(trifluoromethyl)benzamide], not above 10 µM.

With `Cn1cnc(S(=O)(=O)N2C[C@@H](Nc3ccc(F)cc3)[C@H](c3ccccc3F)C2)c1` (relative stereo) [Example 200, trans-4-(2-fluorophenyl)-N-(4-fluorophenyl)-1-[(1-methyl-1H-imidazol-4-yl)sulfonyl]pyrrolidin-3-amine], the Ki was not above 1 µM. Still for that read-out and setting: for `COc1cc(N[C@H]2CN(S(=O)(=O)c3cn(C)cn3)C[C@@H]2c2ccccc2)ncn1` [Example 621, 6-methoxy-N-{(3R,4S)-1-[(1-methyl-1H-imidazol-4-yl)sulfonyl]-4-phenylpyrrolidin-3-yl}pyrimidin-4-amine] the value was not above 10 µM; for `Cn1cnc(S(=O)(=O)N2C[C@@H]([C@@H]3CCCOC3)[C@H](Nc3ccc(F)c(C(F)(F)F)c3)C2)c1` (mixture of isomers) [Example 791, Trans-N-[4-fluoro-3-(trifluoromethyl)phenyl]-1-[(1-methyl-1H-imidazol-4-yl)sulfonyl]-4-[(3S)-tetrahydro-2H-pyran-3-yl]pyrrolidin-3-amine], not above 1 µM. For the compound `Cn1cnc(S(=O)(=O)N2C[C@@H](Nc3ccccc3Cl)[C@H](c3ccc(F)cc3)C2)c1` (relative stereo) [Example 93, trans-N-(2-chlorophenyl)-4-(4-fluorophenyl)-1-[(1-methyl-1H-imidazol-4-yl)sulfonyl]pyrrolidin-3-amine], the inhibition constant Ki is not above 1 µM. Still for that read-out and setting: for `Cn1cnc(S(=O)(=O)N2C[C@@H](Nc3cc(C(F)(F)F)ccc3F)[C@H](c3ccccc3)C2)c1` (relative stereo) [Example 224, trans-N-[2-fluoro-5-(trifluoromethyl)phenyl]-1-[(1-methyl-1H-imidazol-4-yl)sulfonyl]-4-phenylpyrrolidin-3-amine] the value was not above 1 µM.

The same assay, now with this note: radioligand binding, recombinant CHO cell membranes expressing human GlyT1c.
For the compound `Cn1cc(S(=O)(=O)N2C[C@@H](Nc3cccc(OCC(F)(F)F)c3)[C@H](c3ccc(F)cc3)C2)nn1` (relative stereo) [Example 836, trans-4-(4-fluorophenyl)-1-[(1-methyl-1H-1,2,3-triazol-4-yl)sulfonyl]-N-[3-(2,2,2-trifluoroethoxy)phenyl]pyrrolidin-3-amine], the Ki is not above 0.01 µM.

For orientation: Ki means the dissociation constant of the complex between target and ligand, obtained from inhibition or displacement.
